Values quoted from earlier work, collected in US10668050B2, “Compositions, methods and kits for treating diarrhea-predominant irritable bowel syndrome” (RedHill Biopharma Ltd., priority 2014, dated 2020).
Counter-ions that a name gives are not always drawn.

Key:
[1] = scale of Pliska et al., J. Chromatog. 216, 79, 1981

| Compound | solubility | hydropathy value (relative hydrophobic character) [1] |
| --- | --- | --- |
| Cc1nccn1CC1CCc2c(c3ccccc3n2C)C1=O (racemic) [Ondansetron HCl dihydrate, Ondansetron hydrochloride] | soluble in water and normal saline |  |
| N[C@@H](CC(=O)O)C(=O)O [aspartic acid] |  | −2.15 |
| NCC(=O)O [glycine] |  | 0 |
| CC[C@H](C)[C@H](N)C(=O)O [iso-leucine] |  | 1.83 |
